We go through 18 molecules from patent US12012390B2, “Flavone compounds for the treatment and prophylaxis of hepatitis B virus disease” (priority 2018, dated 2024).

Experiment [1] has as its system HBeAg level (surrogate marker for cccDNA) in HepDES19 cells. Put plainly: Engineered HepDES19 primary screen assay (HBeAg as surrogate marker for cccDNA). It counts as cell-based, HBV. The following applies: Hepatitis B virus, HepDES19, 120 h, read-out: IC50 (HBeAg) in HepDES19 primary screen assay, HepDES19 cells, 5 days incubation with compound, HBeAg by ELISA. An excerpt: The assay was employed to screen for novel cccDNA inhibitors. HepDES19 is a cccDNA-producing cell line. In this cell line, HBeAg in the cell culture supernatant as surrogate marker, as HBeAg production depends on cccDNA level and activity. HepDES19 is an engineered cell line which contains a 1.1 unit length HBV genome, and pgRNA transcription from the transgene is controlled by Tetracycline (Tet). In the absence of Tet, pgRNA transcription will be induced, but HBV e antigen (HBeAg) could not be produced from this pgRNA due to very short leader sequence before the HBeAg start codon and the start codon is disrupted. Only after cccDNA is formed, the missing leader sequence and start codon mutation would be restored from the 3′-terminal redundancy of pgRNA, and then HBeAg could be synthesized. Therefore, HBeAg could be used as a surrogate marker for cccDNA (Zhou, T. et al., Antiviral Res. (2006), 72(2), 116-124; Guo, H. et al., J. Virol. (2007), 81(22), 12472-12484).
HepDES19 cells were seeded at 2×10^6 cells per T150 flask and cultured with the culture medium (Dulbecco's Modified Eagle Medium: Nutrient Mixture F-12 [DMEM-F12, Gibco Cat. 11320-82], 10% Fetal Bovine Serum [FBS, Clontech Cat. 631101], 0.1 mM Non-Essential Amino Acids Solution [NEAA, Gibco Cat. 11140-050], 50 μg/mL Penicillin-Streptomycin [PS, Invitrogen Cat. 15140-163], 500 μg/mL Geneticin [G418, Invitrogen Cat. 10131-027]) containing 3 μg/mL Tet (Sigma, Cat. 87128) for 5 days. Cells were then seeded at 4×10^6 cells per T150 in the same culture medium as described above in the absence of Tet for 8 days. Cells were then harvested and frozen at density of 2×10^6 cells per mL. For compound testing, the frozen cells were thawed and seeded into 96-well plates at a density of 6×10^4 cells per well. At 24 hrs after seeding, half log serial dilutions of compounds made with Dimethyl sulfoxide (DMSO, Sigma, Cat. D2650) were further diluted with the same culture medium as described above before they were added to the cells to reach desired final compound concentrations and 1% DMSO concentration. Plates were then incubated at 37° C. for another 5 days before measurement of HBeAg level and cell viability. Intracellular HBeAg level were measured with enzyme-linked immunosorbent assay (ELISA) kit (Shanghai Kehua Diagnostic Medical Products Co., Ltd). Cell viability was assessed using Cell Counting Kit-8 (Donjindo, Cat. CK04-20). IC50 values were derived from the dose-response curve using 4 parameter logistic curve fit method.
The compounds of the present invention were tested for their capacity to inhibit extracellular HBeAg level as described herein.
(An ELISA detects its analyte on a solid surface through an enzyme-linked reagent.)

Experiment [2] has as its system HBV in primary human hepatocytes (PHH). The experiment is described as follows: Cryopreserved primary human hepatocytes (PHH) HBV infection assay. It counts as cell-based. Conditions: Hepatitis B virus, Hepatocyte, 216 h, HBV-infected cryopreserved PHH, 9 days post-compound treatment, extracellular HBsAg by CLIA; read-out: HBsAg IC50. Here is the method:
This assay is used to confirm the anti-HBV effect of the compounds in HBV PHH infection assay. Cryopreserved PHH (BioreclamationIVT, Lot YJM) was thawed at 37° C. and gently transferred into pre-warmed InVitroGRO HT medium (BioreclamationIVT, Cat. S03317). The mixture was centrifuged at 70 relative centrifugal force (RCF) for 3 minutes at RT, and the supernatant was discarded. Pre-warmed InVitroGRO CP medium (BioreclamationIVT, Cat #S03316) was added to the cell pellet to gently re-suspend cells. The cells were seeded at the density of 5.8×10^4 cells per well to collagen I coated 96-well plate (Gibco, Cat. A1142803) with the InVitroGRO CP medium. All plates were incubated at 37° C. with 5% CO2 and 85% humidity.
At 20 hours after plating, the medium was changed to PHH culture medium (Dulbecco's Modified Eagle Medium (DMEM)/F12 (1:1) (Gibco, Cat. 11320-033), 10% fetal bovine serum (Gibco Cat. 10099141), 100 U/mL penicillin, 100 μg/mL streptomycin (Gibco, Cat. 151401-122), 5 ng/mL human epidermal growth factor (Invitrogen Cat. PHG0311L), 20 ng/mL dexamethasone (Sigma, Cat. D4902) and 250 ng/mL human recombinant insulin (Gibco, Cat. 12585-014)). And the cells were incubated at 37° C. with 5% CO2 and 85% humidity for 4 hours. The medium was then changed to pre-warmed PHH culture medium containing 4% polyethylene glycol (PEG) MW8000 (Sigma, Cat. P1458-50ML) and 1% DMSO (Sigma, Cat. D2650). 5.8×10^6 genomic equivalents of HBV were added into the medium.
At 24 hours post-infection, the cells were gently washed with PBS and refreshed with PHH culture medium supplemented with 1% DMSO, and 0.25 mg/mL Matrix gel (Corning, Cat. 356237) at 200 μL per well. All plates were immediately placed in at 37° C. CO2 incubator.
24 hours later, serial dilutions of compounds made with DMSO were further diluted with the same culture medium (PHH culture medium supplemented with 1% DMSO and 0.25 mg/mL Matrix gel as described above) before they were added to the cells to reach desired final compound concentrations and 1% DMSO concentration. The medium containing the compounds were refreshed every three days.
At 9 days post-compound treatment, extracellular HBsAg level were measured with Chemiluminescence Immuno Assay (CLIA) kit (Autobio, HBsAg Quantitative CLIA). Extracellular HBV DNA was extracted by MagNA Pure 96 system (Roche) and then determined by quantitative PCR with the following primers and probe: […]
HBsAg IC50 and HBV DNA IC50 values were derived from the dose-response curve using 4 parameter logistic curve fit method. The compounds of formula (I) have HBsAg IC50<20 μM, particularly <1 μM; and HBV DNA IC50<50 μM. Test results of the compounds of this invention as well as the reference compounds in Cryopreserved PHH assay are given in Table 2 and Table 3.

Usually IC50 stands for the concentration at which inhibition is half-maximal. Regarding `CC(COc1ccc(-c2cc(=O)c3cccc(Cl)c3o2)cc1)OC1CC(C(=O)O)C1` (stereo not drawn) [Example 12, 3-[2-[4-(8-chloro-4-oxo-chromen-2-yl)phenoxy]-1-methyl-ethoxy]cyclobutanecarboxylic acid], the results for the half-maximal inhibitory concentration (IC50) in experiment [1] and in experiment [2] were 1.07 µM and 0.21 µM, respectively.

As to `O=C(O)C1CC(OCCCOc2ccc(-c3cc(=O)c4cccc(Cl)c4o3)cc2)C1` (stereo not drawn) [Example 13, 3-[3-[4-(8-chloro-4-oxo-chromen-2-yl)phenoxy]propoxy]cyclobutanecarboxylic acid], the results for the IC50 in experiment [1] and in experiment [2] were 0.69 µM and 1.27 µM, respectively.

`O=C(O)c1cccc(OCC(O)COc2ccc(-c3cc(=O)c4cccc(Cl)c4o3)cc2)c1` (stereo not drawn) [Example 14, 3-[3-[4-(8-chloro-4-oxo-chromen-2-yl)phenoxy]-2-hydroxy-propoxy]benzoic acid]: the IC50 in experiment [1] stood at 20.4 µM; in experiment [2], 19.2 µM.

In the case of `O=C(O)C1CC(OCCOc2ccc(-c3cc(=O)c4ccc(F)c(Cl)c4o3)cc2)C1` (stereo not drawn) [Example 15, 3-[2-[4-(8-chloro-7-fluoro-4-oxo-chromen-2-yl)phenoxy]ethoxy]cyclobutanecarboxylic acid], the results for the half-maximal inhibitory concentration (IC50) in experiment [1] and in experiment [2] were 10.3 µM and 0.28 µM, respectively.

In the case of `COc1ccc2c(=O)cc(-c3ccc(OCCOC4CC(C(=O)O)C4)cc3)oc2c1Cl` (stereo not drawn) [Example 19, 3-[2-[4-(8-chloro-7-methoxy-4-oxo-chromen-2-yl)phenoxy]ethoxy]cyclobutanecarboxylic acid], the figures for the IC50 in experiment [1] and in experiment [2] were 22.2 µM and 1.51 µM, respectively.

Turning to `O=C(O)C1CC(OCCOc2ccc(-c3cc(=O)c4ccc(Cl)c(Cl)c4o3)cc2)C1` (stereo not drawn) [Example 21, 3-[2-[4-(7,8-dichloro-4-oxo-chromen-2-yl)phenoxy]ethoxy]cyclobutanecarboxylic acid], the half-inhibitory concentration (IC50) was determined as 0.29 µM in experiment [1] and 5.1 µM in experiment [2].

As to `N#Cc1ccc2c(=O)cc(-c3ccc(OCCOC4CC(C(=O)O)C4)cc3)oc2c1Cl` (stereo not drawn) [Example 23, 3-[2-[4-(8-chloro-7-cyano-4-oxo-chromen-2-yl)phenoxy]ethoxy]cyclobutanecarboxylic acid], the IC50 in experiment [1] turned out to be 21.1 µM; in experiment [2] it was 7.11 µM.

Turning to `O=c1cc(-c2ccc(OCCO[C@H]3C[C@@H](C(=O)O)C3)cc2)oc2c(Cl)ccc(O)c12` [Example 24, Cis-3-[2-[4-(8-chloro-5-hydroxy-4-oxo-chromen-2-yl)phenoxy]ethoxy]cyclobutanecarboxylic acid], the IC50 was 1.14 µM in experiment [1] and 4.83 µM in experiment [2].

With `COc1ccc(Cl)c2oc(-c3ccc(OCCO[C@H]4C[C@@H](C(=O)O)C4)cc3)cc(=O)c12` [Example 25, Cis-3-[2-[4-(8-chloro-5-methoxy-4-oxo-chromen-2-yl)phenoxy]ethoxy]cyclobutanecarboxylic acid], the half-maximal inhibitory concentration (IC50) in experiment [1] came to 1.05 µM; in experiment [2], 0.93 µM.

For `O=c1cc(-c2ccc(OCCO[C@H]3C[C@@H](C(=O)O)C3)cc2)oc2c(Cl)ccc(Br)c12` [Example 28, Cis-3-[2-[4-(5-bromo-8-chloro-4-oxo-chromen-2-yl)phenoxy]ethoxy]cyclobutanecarboxylic acid], the IC50 in experiment [1] came to 2.8 µM; in experiment [2], 1.92 µM.

On to `O=c1cc(-c2ccc(OCCO[C@H]3C[C@@H](C(=O)O)C3)cc2)oc2c(Cl)ccc(Cl)c12` [Example 29, Cis-3-[2-[4-(5,8-dichloro-4-oxo-chromen-2-yl)phenoxy]ethoxy]cyclobutanecarboxylic acid], for which the figures for the half-maximal inhibitory concentration (IC50) in experiment [1] and in experiment [2] were 0.21 µM and 0.9 µM, respectively.

In the case of `O=c1cc(-c2ccc(OCCO[C@H]3C[C@@H](C(=O)O)C3)cc2)oc2c(Cl)ccc(C3CC3)c12` [Example 30, Cis-3-[2-[4-(8-chloro-5-cyclopropyl-4-oxo-chromen-2-yl)phenoxy]ethoxy]cyclobutanecarboxylic acid], the IC50 is 0.13 µM in experiment [1] and 7.29 µM in experiment [2].

For the molecule `O=c1cc(-c2ccc(OCCO[C@H]3C[C@@H](C(=O)O)C3)cc2)oc2c(Br)cccc12` [Example 33, Cis-3-[2-[4-(8-bromo-4-oxo-chromen-2-yl)phenoxy]ethoxy]cyclobutanecarboxylic acid], the half-inhibitory concentration (IC50) in experiment [1] turned out to be 0.31 µM; in experiment [2], 0.68 µM.

Turning to `O=c1cc(-c2cnc(OCCO[C@H]3C[C@@H](C(=O)O)C3)cn2)oc2c(Cl)cccc12` [Example 39, Cis-3-[2-[5-(8-chloro-4-oxo-chromen-2-yl)pyrazin-2-yl]oxyethoxy]cyclobutanecarboxylic acid], the IC50 was determined as 9.01 µM in experiment [1] and 5.74 µM in experiment [2].

Consider `COC(=O)[C@H]1C[C@@H](OCCOc2cnc(-c3cc(=O)c4cccc(Cl)c4o3)cn2)C1` [Example 40, Cis-methyl 3-[2-[5-(8-chloro-4-oxo-chromen-2-yl)pyrazin-2-yl]oxyethoxy]cyclobutanecarboxylate], for which the half-maximal inhibitory concentration (IC50) in experiment [1] was 1.61 µM; in experiment [2] it was 7.12 µM.

For the molecule `O=c1cc(-c2ccc(OCCO[C@H]3C[C@@H](C(=O)O)C3)c(F)c2)oc2c(Cl)cccc12` [Example 42, Cis-3-[2-[4-(8-chloro-4-oxo-chromen-2-yl)-2-fluoro-phenoxy]ethoxy]cyclobutanecarboxylic acid], the IC50 in experiment [1] was 0.61 µM; in experiment [2], 0.58 µM.

Consider `O=c1cc(-c2ccc(OCCO[C@H]3C[C@@H](C(=O)O)C3)c(Cl)c2)oc2c(Cl)cccc12` [Example 43, Cis-3-[2-[2-chloro-4-(8-chloro-4-oxo-chromen-2-yl)phenoxy]ethoxy]cyclobutanecarboxylic acid], for which the IC50 in experiment [1] was 0.25 µM; in experiment [2] it was 0.22 µM.

As for `O=c1cc(-c2ccc(OCCO[C@H]3C[C@@H](C(=O)O)C3)c(Br)c2)oc2c(Cl)cccc12` [Example 44, Cis-3-[2-[2-bromo-4-(8-chloro-4-oxo-chromen-2-yl)phenoxy]ethoxy]cyclobutanecarboxylic acid], the half-inhibitory concentration (IC50) in experiment [1] worked out at 0.57 µM; in experiment [2] it was 0.04 µM.
